Reference: US20040175722A1, “Methods and compositions for reducing screening in oligonucleotide-directed nucleic acid sequence alteration” (priority 2002, published 2004)

Assays:
[1] = system: mutant hygromycin resistance gene in Mata+IntHYG(rep)eGFP; assay: Yeast cell targeting assay: oligonucleotide-directed alteration of the integrated hygromycin-eGFP target; assay type: cell-based; settings: for Alteration per 10^5 Aureobasidin^R colonies: average of four experiments with standard deviation
human β-globin gene [2] = assay: Dual oligonucleotide experiment: screen of hygromycin-resistant colonies for alteration of the β-globin target in the βS YAC (PCR, SNaPshot); settings: in hygromycin-selected population; with or without Rad51 overexpression
[3] = system: mutated Hyg(rep)eGFP target in Mata-intHyg(rep)eGFP/βYAC; assay: Dual oligonucleotide experiment: conversion efficiency for the hygromycin target (Example 2); assay type: cell-based, yeast
[4] = system: chromosomal hygromycin mutant gene in LSY678IntHyg(rep)β cells; assay: Dual targeting protocol: correction efficiency (C.E.) of the chromosomal hygromycin mutation (Example 4); assay type: cell-based, yeast; settings: LSY678IntHyg(rep)β + RAD51 expression plasmid; HU and TSA; compared with FIG. 3
human β-globin gene [5] = assay: Dual targeting protocol: second-site editing of the YAC β-globin gene in hygromycin-resistant colonies (SNaPshot, sequencing); settings: RAD51 overexpression; HU and TSA

| Substance | Fold correction (relative to Hyg3S/74T) [1] | Alteration per 10^5 Aureobasidin^R colonies [1] | alteration efficiency of the β-globin gene relative to alteration of the hygromycin target (human β-globin gene [2]) | other results |
| --- | --- | --- | --- | --- |
| 5′-C*T*C* GTGCTTTCAGCTTCGATGTAGGAGGGCGTGGATACGTCCTGCGGGTAAATAGCTGCGCCGATGGTTTC *T*A*C-3′ [Hyg3S/74T] | 1x | 0.22 ± 0.3 per 10^5 Aureobasidin^R colonies |  |  |
| 5′-G*C*C* TCACCACCAACTTCATCCACGTTCACCTTGCCTCACAGGGCAGTAACGGCAGACTTCTCCACAGG*A *G*T-3′ [βS-386m] |  |  | approximately 10 fold |  |
| 5′-G*T*A* GAAACCATCGGCGCAGCTATTTACCCGCAGGACGTATCCACGCCCTCCTACATCGAAGCTGAAAGCAC*G *A*G-3′ [Hyg3S/74NT] | 4.0x | 0.89 ± 1.3 per 10^5 Aureobasidin^R colonies |  | Hygromycin Alteration Efficiency (/10^5) ([3]; βS-378m Experiment, Mata-intHyg(rep)eGFP/βYAC (HU + TSA)): 12.79 /10^5; Hygromycin Alteration Efficiency (/10^5) ([3]; βS-378m Experiment, Mata-intHyg(rep)eGFP/βYAC + pYNARad51 (HU + TSA)): 96.96 /10^5; Hygromycin Alteration Efficiency (/10^5) ([3]; βS-386m Experiment, Mata-intHyg(rep)eGFP/βYAC (HU + TSA)): 12.35 /10^5; Hygromycin Alteration Efficiency (/10^5) ([3]; βS-386m Experiment, Mata-intHyg(rep)eGFP/βYAC, no HU or TSA): 3.22 /10^5; effect of RAD51 expression on hygromycin correction efficiency [4]: increases |
| 5′-T*A*A* CGGCAGACTTCTCCACAGGAGTCAGGTGCACCGTGGTGTCTGTTTGAGGTTGCTAGTGAACACAG*T *T*G-3′ [βS-378m] |  |  | approximately 10 fold | cells bearing the corrected hygromycin that also contain the edited β-globin gene (human β-globin gene [5]): approximately 10% |
